pIC50: −log10 of the molar value.
Key:
[1] = biological target: FLT3 (Homo sapiens, UniProt P36888); assay: SelectScreen kinase profiling, ZLYTE; format: biochemical; settings: FLT3, 10 µM
[2] = biological target: ULK2 (Homo sapiens, UniProt Q8IYT8); assay: SelectScreen kinase profiling, LanthaScreen binding; settings: ULK2, 10 µM
Source text: (§1) Kinase Technology % Inhibition Avg Kinase Technology % Inhibition Avg […]

[3] = biological target: WNK2 (Homo sapiens, UniProt Q9Y3S1); assay: as above; settings: WNK2, 10 µM
Source text: as §1

[4] = biological target: TAOK3 (JIK) (Homo sapiens, UniProt Q9H2K8); assay: as above
Source text: as §1

[5] = biological target: ZAK (Homo sapiens, UniProt Q9NYL2); assay: as above
Source text: as §1

[6] = biological target: TLK2 (Homo sapiens, UniProt Q86UE8); assay: as above; settings: TLK2, 10 µM
Source text: as §1

[7] = biological target: TEC (Homo sapiens, UniProt P42680); assay: as above
Source text: as §1

[8] = biological target: WNK1 (Homo sapiens, UniProt Q9H4A3); assay: as above; settings: WNK1, 10 µM
Source text: as §1

[9] = biological target: SGK2 (Homo sapiens, UniProt Q9HBY8); assay: SelectScreen kinase profiling, ZLYTE; format: biochemical; settings: SGK2, 10 µM
[10] = biological target: MELK (Homo sapiens, UniProt Q14680); assay: SelectScreen kinase profiling, ZLYTE; format: biochemical
[11] = biological target: LRRK2 R1441C (Homo sapiens, UniProt Q5S007, R1441C); assay: SelectScreen kinase profiling, Adapta; format: biochemical
[12] = biological target: ABL1 (Homo sapiens, UniProt P00519); assay: SelectScreen kinase profiling, ZLYTE; format: biochemical; settings: ABL1, 10 µM
[13] = biological target: CDK7/cyclin H/MNAT1 (Homo sapiens, UniProt P50613); assay: SelectScreen kinase profiling, Adapta; format: biochemical; settings: CDK7/cyclin H/MNAT1, 10 µM
[14] = biological target: PIK3C2B (PI3K-C2 beta) (Homo sapiens, UniProt O00750); assay: SelectScreen kinase profiling, Adapta; format: biochemical
[15] = tested on: RT and MB cells; assay: Beta-galactosidase senescence assay; format: cell-based; settings: all cell lines
Experimental: Senescence was evaluated using the Beta-galactosidase assay (Senescence Cells Histochemical Staining Kit CS0030 (Sigma, St Louis, MO, USA) and clonogenic recovery assay as previously described.

[16] = biological target: RET V804L (Homo sapiens, UniProt P07949, V804L); assay: SelectScreen kinase profiling, ZLYTE; format: biochemical
[17] = biological target: FGFR3 K650M (Homo sapiens, UniProt P22607, K650M); assay: SelectScreen kinase profiling, LanthaScreen binding
[18] = biological target: P450 2J2 (Homo sapiens, UniProt P51589)
[19] = biological target: AKT3 (PKB gamma) (Homo sapiens, UniProt Q9Y243); assay: SelectScreen kinase profiling, ZLYTE; format: biochemical
[20] = biological target: MET M1250T (Homo sapiens, UniProt P08581, M1250T); assay: SelectScreen kinase profiling, ZLYTE; format: biochemical
[21] = biological target: CAMKK2 (CaMKK beta) (Homo sapiens, UniProt Q96RR4); assay: SelectScreen kinase profiling, LanthaScreen binding
[22] = biological target: ROCK2 (Homo sapiens, UniProt O75116); assay: SelectScreen kinase profiling, ZLYTE; format: biochemical; settings: ROCK2, 10 µM
[23] = biological target: MERTK (cMER) A708S (Homo sapiens, UniProt Q12866, A708S); assay: SelectScreen kinase profiling, LanthaScreen binding
[24] = biological target: STK16 (PKL12) (Homo sapiens, UniProt O75716); assay: as above
[25] = biological target: FGFR3 V555M (Homo sapiens, UniProt P22607, V555M); assay: SelectScreen kinase profiling, ZLYTE; format: biochemical
[26] = biological target: KIT Y823D (Homo sapiens, UniProt P10721, Y823D); assay: SelectScreen kinase profiling, LanthaScreen binding
[27] = biological target: NLK (Homo sapiens, UniProt Q9UBE8); assay: as above
[28] = biological target: RPS6KA6 (RSK4) (Homo sapiens, UniProt Q9UK32); assay: SelectScreen kinase profiling, ZLYTE; format: biochemical
[29] = biological target: CSNK1D (CK1 delta) (Homo sapiens, UniProt P48730); assay: SelectScreen kinase profiling, ZLYTE; format: biochemical
[30] = biological target: ALK (Homo sapiens, UniProt Q9UM73); assay: SelectScreen kinase profiling, ZLYTE; format: biochemical
[31] = biological target: STK22B (TSSK2) (Homo sapiens, UniProt Q96PF2); assay: SelectScreen kinase profiling, ZLYTE; format: biochemical
[32] = biological target: ABL1 G250E (Homo sapiens, UniProt P00519, G250E); assay: SelectScreen kinase profiling, ZLYTE; format: biochemical
[33] = biological target: MAP4K1 (HPK1) (Homo sapiens, UniProt Q92918); assay: SelectScreen kinase profiling, LanthaScreen binding
[34] = biological target: FGFR3 (Homo sapiens, UniProt P22607); assay: SelectScreen kinase profiling, ZLYTE; format: biochemical; settings: FGFR3, 10 µM
[35] = biological target: STK32B (YANK2) (Homo sapiens, UniProt Q9NY57); assay: SelectScreen kinase profiling, LanthaScreen binding
[36] = biological target: NUAK1 (ARK5) (Homo sapiens, UniProt O60285); assay: SelectScreen kinase profiling, Adapta; format: biochemical
[37] = biological target: AMPK (A2/B2/G1) (Homo sapiens, UniProt P54646); assay: SelectScreen kinase profiling, LanthaScreen binding
[38] = biological target: PRKCA (PKC alpha) (Homo sapiens, UniProt P17252); assay: SelectScreen kinase profiling, ZLYTE; format: biochemical
[39] = biological target: STK23 (MSSK1) (Homo sapiens, UniProt Q9UPE1); assay: SelectScreen kinase profiling, ZLYTE; format: biochemical
Source text: Kinase Technology % Inhibition Avg Kinase Technology % Inhibition Avg

TEC, sequence (P42680 whole entry): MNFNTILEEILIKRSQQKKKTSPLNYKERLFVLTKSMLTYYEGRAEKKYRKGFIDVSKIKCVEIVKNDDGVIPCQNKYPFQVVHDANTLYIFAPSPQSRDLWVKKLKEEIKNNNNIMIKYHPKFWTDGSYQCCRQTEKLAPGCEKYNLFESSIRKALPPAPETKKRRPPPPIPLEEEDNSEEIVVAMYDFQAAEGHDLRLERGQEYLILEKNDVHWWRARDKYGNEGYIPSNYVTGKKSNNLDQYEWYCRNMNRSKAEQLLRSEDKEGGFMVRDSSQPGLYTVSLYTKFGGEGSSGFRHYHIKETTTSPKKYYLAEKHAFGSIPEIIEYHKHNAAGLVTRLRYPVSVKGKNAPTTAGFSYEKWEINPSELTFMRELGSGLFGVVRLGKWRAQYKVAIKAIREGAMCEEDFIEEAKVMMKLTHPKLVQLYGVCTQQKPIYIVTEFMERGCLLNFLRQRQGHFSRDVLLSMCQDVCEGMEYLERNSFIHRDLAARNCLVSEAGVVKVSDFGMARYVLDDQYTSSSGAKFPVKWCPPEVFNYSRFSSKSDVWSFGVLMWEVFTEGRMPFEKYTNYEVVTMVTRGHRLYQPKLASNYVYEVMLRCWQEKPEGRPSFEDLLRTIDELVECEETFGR
TLK2, sequence (Q86UE8 whole entry): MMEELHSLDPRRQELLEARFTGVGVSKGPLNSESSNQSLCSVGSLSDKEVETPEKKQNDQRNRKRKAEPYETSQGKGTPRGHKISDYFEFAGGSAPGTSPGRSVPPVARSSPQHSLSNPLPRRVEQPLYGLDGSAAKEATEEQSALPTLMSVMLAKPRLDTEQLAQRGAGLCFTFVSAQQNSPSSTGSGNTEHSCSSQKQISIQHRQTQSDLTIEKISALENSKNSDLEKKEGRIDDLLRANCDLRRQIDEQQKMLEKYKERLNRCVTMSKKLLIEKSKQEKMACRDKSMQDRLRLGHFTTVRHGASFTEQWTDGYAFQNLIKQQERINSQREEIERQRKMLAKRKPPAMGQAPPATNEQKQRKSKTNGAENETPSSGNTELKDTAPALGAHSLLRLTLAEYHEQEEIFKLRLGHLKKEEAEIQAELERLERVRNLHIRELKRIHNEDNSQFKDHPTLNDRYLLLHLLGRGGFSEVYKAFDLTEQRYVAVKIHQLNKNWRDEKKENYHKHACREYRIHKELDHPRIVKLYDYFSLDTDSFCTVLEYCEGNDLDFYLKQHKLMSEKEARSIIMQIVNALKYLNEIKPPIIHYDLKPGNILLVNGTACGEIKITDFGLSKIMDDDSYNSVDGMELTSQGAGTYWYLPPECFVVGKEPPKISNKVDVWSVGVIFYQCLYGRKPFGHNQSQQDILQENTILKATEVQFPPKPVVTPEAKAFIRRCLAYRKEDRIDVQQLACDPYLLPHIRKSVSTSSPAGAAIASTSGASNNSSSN
SGK2, sequence (Q9HBY8 whole entry): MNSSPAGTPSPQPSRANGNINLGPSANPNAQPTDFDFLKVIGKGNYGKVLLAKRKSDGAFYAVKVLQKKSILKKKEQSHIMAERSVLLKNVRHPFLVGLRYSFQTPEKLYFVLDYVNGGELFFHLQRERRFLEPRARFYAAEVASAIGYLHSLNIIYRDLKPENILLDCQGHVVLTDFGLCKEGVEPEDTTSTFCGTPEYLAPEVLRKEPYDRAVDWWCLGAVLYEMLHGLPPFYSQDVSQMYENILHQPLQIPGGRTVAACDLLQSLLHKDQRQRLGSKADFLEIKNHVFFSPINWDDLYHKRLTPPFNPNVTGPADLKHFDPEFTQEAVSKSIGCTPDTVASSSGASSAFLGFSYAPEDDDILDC
MAP4K1 (HPK1), sequence (Q92918 whole entry): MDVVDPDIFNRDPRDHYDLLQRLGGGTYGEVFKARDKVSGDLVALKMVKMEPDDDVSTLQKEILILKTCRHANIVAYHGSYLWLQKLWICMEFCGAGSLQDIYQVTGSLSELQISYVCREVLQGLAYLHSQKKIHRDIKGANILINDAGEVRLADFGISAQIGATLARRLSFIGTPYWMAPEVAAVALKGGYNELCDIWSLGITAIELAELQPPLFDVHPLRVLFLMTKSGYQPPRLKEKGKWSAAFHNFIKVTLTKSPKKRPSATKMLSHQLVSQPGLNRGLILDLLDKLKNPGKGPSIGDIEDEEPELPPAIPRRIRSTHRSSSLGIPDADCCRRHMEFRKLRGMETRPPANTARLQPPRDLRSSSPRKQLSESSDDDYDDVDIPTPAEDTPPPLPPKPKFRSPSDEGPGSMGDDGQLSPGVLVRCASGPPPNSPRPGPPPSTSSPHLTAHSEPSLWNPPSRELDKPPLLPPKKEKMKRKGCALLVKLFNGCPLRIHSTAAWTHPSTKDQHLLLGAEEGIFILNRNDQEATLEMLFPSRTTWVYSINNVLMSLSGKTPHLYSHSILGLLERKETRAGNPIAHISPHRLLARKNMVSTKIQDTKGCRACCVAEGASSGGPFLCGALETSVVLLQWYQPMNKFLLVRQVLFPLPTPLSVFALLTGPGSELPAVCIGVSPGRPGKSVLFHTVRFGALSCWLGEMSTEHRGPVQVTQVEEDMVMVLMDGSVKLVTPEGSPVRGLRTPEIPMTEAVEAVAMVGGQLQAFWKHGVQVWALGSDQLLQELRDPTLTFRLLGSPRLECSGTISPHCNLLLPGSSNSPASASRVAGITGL
MET M1250T, sequence (P08581 25-1390 M1250T): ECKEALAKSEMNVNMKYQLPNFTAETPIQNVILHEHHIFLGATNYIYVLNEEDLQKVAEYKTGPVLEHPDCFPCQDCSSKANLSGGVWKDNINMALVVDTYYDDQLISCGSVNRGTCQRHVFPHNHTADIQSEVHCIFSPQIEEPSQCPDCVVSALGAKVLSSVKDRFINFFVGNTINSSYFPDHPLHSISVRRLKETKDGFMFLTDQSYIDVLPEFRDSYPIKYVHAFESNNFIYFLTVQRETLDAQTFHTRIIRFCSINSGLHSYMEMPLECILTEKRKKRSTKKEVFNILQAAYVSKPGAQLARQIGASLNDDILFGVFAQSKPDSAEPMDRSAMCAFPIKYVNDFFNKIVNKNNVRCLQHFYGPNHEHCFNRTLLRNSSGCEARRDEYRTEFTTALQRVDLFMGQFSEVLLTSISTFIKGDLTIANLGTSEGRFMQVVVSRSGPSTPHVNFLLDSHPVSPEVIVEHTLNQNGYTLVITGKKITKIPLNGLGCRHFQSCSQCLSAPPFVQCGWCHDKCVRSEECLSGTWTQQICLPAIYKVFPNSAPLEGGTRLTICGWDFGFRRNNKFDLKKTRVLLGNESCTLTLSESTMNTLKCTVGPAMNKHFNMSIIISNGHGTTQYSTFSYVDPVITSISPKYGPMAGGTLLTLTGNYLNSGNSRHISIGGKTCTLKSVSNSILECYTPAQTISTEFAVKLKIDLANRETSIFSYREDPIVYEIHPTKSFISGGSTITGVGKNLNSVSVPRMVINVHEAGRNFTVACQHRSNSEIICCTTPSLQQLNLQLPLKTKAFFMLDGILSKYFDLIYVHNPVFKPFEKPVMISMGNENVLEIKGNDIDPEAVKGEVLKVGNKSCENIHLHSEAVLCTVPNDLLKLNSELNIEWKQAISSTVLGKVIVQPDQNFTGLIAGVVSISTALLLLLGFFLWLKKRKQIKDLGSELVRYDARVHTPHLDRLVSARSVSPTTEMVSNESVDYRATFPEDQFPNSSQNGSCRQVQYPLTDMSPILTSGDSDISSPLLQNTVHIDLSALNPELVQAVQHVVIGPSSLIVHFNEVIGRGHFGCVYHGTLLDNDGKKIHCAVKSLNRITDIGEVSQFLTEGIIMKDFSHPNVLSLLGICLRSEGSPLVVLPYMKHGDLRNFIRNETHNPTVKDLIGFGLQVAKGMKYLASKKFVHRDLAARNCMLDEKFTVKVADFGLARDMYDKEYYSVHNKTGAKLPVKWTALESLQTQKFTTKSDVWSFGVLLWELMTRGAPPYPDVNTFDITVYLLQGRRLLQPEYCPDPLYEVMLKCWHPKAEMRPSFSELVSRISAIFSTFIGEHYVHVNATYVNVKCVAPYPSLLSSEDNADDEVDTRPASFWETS
NLK, sequence (Q9UBE8 whole entry): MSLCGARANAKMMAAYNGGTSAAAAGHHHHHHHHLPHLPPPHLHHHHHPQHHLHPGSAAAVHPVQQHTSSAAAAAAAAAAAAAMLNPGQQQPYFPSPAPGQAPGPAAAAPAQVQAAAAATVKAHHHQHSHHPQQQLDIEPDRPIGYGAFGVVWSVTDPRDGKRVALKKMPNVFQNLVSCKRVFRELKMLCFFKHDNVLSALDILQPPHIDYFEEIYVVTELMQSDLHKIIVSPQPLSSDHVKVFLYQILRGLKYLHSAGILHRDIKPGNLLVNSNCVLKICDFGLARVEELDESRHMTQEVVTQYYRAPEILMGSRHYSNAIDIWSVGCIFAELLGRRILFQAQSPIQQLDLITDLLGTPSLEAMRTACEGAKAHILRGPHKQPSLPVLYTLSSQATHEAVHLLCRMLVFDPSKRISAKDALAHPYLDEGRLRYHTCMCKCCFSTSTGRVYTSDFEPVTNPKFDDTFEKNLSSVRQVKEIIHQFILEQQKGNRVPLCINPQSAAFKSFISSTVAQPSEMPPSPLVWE
AKT3 (PKB gamma), sequence (Q9Y243 whole entry): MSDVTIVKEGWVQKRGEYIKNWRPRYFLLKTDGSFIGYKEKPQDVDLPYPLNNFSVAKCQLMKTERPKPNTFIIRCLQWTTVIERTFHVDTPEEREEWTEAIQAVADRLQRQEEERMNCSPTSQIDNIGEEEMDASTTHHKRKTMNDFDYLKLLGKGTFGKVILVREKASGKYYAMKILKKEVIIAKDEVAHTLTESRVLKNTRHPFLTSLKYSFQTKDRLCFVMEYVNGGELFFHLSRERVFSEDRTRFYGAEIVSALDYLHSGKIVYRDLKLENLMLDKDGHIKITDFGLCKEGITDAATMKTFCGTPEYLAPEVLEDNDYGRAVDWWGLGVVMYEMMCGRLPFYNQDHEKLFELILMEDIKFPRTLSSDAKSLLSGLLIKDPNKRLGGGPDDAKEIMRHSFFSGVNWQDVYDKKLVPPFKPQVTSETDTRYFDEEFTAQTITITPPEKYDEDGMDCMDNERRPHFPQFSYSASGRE

O=C(c1ccc(/C=C/c2n[nH]c3ccccc23)cc1)N1CCNCC1 [KW-2449]
inhibition at 10 µM [1]: 100%
inhibition at 10 µM [2]: 56%
inhibition at 10 µM [3]: 1%
inhibition at 10 µM [4]: 25%
inhibition at 10 µM [5]: 77%
inhibition at 10 µM [6]: 33%
inhibition at 10 µM [7]: -9%
inhibition at 10 µM [8]: 2%
inhibition at 10 µM [9]: 95%
inhibition at 10 µM [10]: 101%
inhibition at 10 µM [11]: 100%
inhibition at 10 µM [12]: 100%
inhibition at 10 µM [13]: 98%
inhibition at 10 µM [14]: 9%
cell senescence (beta-galactosidase) [15]: dose-dependent induction of cell senescence
inhibition at 10 µM [16]: 100%
inhibition at 10 µM [17]: 22%
pIC50 [18]: 6.60
inhibition at 10 µM [19]: 11%
inhibition at 10 µM [20]: 96%
inhibition at 10 µM [21]: 86%
inhibition at 10 µM [22]: 83%
inhibition at 10 µM [23]: 74%
inhibition at 10 µM [24]: 83%
inhibition at 10 µM [25]: 100%
inhibition at 10 µM [26]: 61%
inhibition at 10 µM [27]: -2%
inhibition at 10 µM [28]: 97%
inhibition at 10 µM [29]: 53%
inhibition at 10 µM [30]: 101%
inhibition at 10 µM [31]: 74%
inhibition at 10 µM [32]: 100%
inhibition at 10 µM [33]: 76%
inhibition at 10 µM [34]: 97%
inhibition at 10 µM [35]: 61%
inhibition at 10 µM [36]: 100%
inhibition at 10 µM [37]: 75%
inhibition at 10 µM [38]: 61%
inhibition at 10 µM [39]: 59%

— article PMC6540285, “Evaluation of Protein Kinase Inhibitors with PLK4 Cross-Over Potential in a Pre-Clinical Model of Cancer” (International Journal of Molecular Sciences, 2019)
